This note sets out measurements from patent publication US10519177B2, “Heterocyclic compounds and uses thereof” (Plexxikon Inc., priority 2013, dated 2019).

As a reminder, the IC50 is the midpoint of a concentration-inhibition curve.

Assay [1] deals with BRD4-BD1 (44-164) (Homo sapiens (Human), UniProt O60885). Put plainly: Alphascreen binding assay BRD4-BD1. To be noted: BRD4(1) H4; read-out: Biochemical activity (IC50 μM) BRD4(1) H4. In short, it runs like this: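 AlphaScreen signal (nickel acceptor, streptavidin donor beads, 7.5 µg/ml each, read 30 min after addition) reports displacement of biotin-H4 K5/K8/K12/K16-acetyl peptide from His-BRD4 BD1 (44-164) or tandem BD12 (1-477).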

Assay [2] deals with BRD4-BD12 (1-477) (Homo sapiens (Human), UniProt O60885). Nature of the assay: Alphascreen binding assay BRD4-BD12. Conditions: BRD4(1 2) H4; read-out: Biochemical activity (IC50 μM) BRD4(1 2) H4. Summed up:
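In this competition format, compounds displace a biotinylated tetra-acetyl H4 peptide from E. coli-expressed human BRD4 bromodomain constructs captured on nickel chelate beads. The reaction runs at pH 7.5 with 2 mM DTT and detergent for 1 h at room temperature before a 30 min bead step.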
A general note: Alpha assays give light when donor and acceptor beads are brought close together.

The test system of assay [3] is MV-4-11 cells. Nature of the assay: Oncology cell growth assay MV-4-11 (CellTiter Glo). Format: cell-based. Conditions: Homo sapiens, MV4-11, 72 h; read-out: Cell activity (IC50 μM) MV-4-11 3d-Growth. Summed up:
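Growth read by CellTiter Glo luminescence after 72 h compound treatment of MLL-AF4-bearing MV-4-11 cells (3000/well). Titration: 8 points, 1:3 steps, maximum 10 μM, 0.2% DMSO final. Data normalized to DMSO wells, four-parameter fit gives pIC50.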
For orientation: Cellular ATP, detected with luciferase, serves as a proxy for viable cell number.

Assay [4] concerns bromodomain. Put plainly: at least one of the bromodomain cell assays of Example 57. In kind it is cell-based. Conditions: at least one of the bromodomain cell assays described in Example 57; read-out: IC50 in at least one of the bromodomain cell assays.

A value given as a limit tells only on which side of the number the result lay.

Take `Cc1noc(C)c1-c1cnc2c(-c3ccc(C(=O)O)cc3)cn(S(=O)(=O)c3ccccc3)c2c1` [P-0371, 4-[1-(benzenesulfonyl)-6-(3,5-dimethylisoxazol-4-yl)pyrrolo[3,2-b]pyridin-3-yl]benzoic acid]: the IC50 in assay [1] was less than 1 µM; in assay [2] it was less than 1 µM; in assay [3], less than 1 µM; in assay [4], less than 10 µM.
With `Cc1nnn(C)c1-c1cnc2c(-c3cnn(CC(F)(F)F)c3)cn(CC3(F)CCC(F)(F)CC3)c2c1` [P-0372, 6-(3,5-dimethyltriazol-4-yl)-1-[(1,4,4-trifluorocyclohexyl)methyl]-3-[1-(2,2,2-trifluoroethyl)pyrazol-4-yl]pyrrolo[3,2-b]pyridine], the IC50 was less than 1 µM in assay [1], less than 1 µM in assay [2], less than 1 µM in assay [3] and less than 10 µM in assay [4].
